The values below come from US20240246932A1 (Merck Sharp & Dohme LLC, priority 2021, published 2024).

The target of this assay is human NaV 1.8 channels stably expressed in HEK 293 cells (Homo sapiens (Human), UniProt Q9Y5Y9). As to the kind of experiment: Nav1.8 Qube automated patch-clamp assay. In kind it is cell-based. To be noted: human NaV1.8 in HEK 293 cells, whole-cell voltage clamp, room temperature; read-out: IC50 values (nM) for Examples in the Nav1.8 Qube Assay. In outline:
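Whole-cell voltage clamp at room temperature on HEK293 cells; from −90 mV, a 10 s 1 Hz train of 20 ms pulses to 10 mV (repolarising to −67 mV) was applied. Peak currents at pulses 1 and 10 gave resting- and inactivated-state inhibition; IC50 fitted by Hill equation. Internal CsF/CsCl buffer.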
(In general: In patch-clamp work, channel activity is measured electrically.)

Sequence of human NaV 1.8 channels stably expressed in HEK 293 cells (Q9Y5Y9 whole entry): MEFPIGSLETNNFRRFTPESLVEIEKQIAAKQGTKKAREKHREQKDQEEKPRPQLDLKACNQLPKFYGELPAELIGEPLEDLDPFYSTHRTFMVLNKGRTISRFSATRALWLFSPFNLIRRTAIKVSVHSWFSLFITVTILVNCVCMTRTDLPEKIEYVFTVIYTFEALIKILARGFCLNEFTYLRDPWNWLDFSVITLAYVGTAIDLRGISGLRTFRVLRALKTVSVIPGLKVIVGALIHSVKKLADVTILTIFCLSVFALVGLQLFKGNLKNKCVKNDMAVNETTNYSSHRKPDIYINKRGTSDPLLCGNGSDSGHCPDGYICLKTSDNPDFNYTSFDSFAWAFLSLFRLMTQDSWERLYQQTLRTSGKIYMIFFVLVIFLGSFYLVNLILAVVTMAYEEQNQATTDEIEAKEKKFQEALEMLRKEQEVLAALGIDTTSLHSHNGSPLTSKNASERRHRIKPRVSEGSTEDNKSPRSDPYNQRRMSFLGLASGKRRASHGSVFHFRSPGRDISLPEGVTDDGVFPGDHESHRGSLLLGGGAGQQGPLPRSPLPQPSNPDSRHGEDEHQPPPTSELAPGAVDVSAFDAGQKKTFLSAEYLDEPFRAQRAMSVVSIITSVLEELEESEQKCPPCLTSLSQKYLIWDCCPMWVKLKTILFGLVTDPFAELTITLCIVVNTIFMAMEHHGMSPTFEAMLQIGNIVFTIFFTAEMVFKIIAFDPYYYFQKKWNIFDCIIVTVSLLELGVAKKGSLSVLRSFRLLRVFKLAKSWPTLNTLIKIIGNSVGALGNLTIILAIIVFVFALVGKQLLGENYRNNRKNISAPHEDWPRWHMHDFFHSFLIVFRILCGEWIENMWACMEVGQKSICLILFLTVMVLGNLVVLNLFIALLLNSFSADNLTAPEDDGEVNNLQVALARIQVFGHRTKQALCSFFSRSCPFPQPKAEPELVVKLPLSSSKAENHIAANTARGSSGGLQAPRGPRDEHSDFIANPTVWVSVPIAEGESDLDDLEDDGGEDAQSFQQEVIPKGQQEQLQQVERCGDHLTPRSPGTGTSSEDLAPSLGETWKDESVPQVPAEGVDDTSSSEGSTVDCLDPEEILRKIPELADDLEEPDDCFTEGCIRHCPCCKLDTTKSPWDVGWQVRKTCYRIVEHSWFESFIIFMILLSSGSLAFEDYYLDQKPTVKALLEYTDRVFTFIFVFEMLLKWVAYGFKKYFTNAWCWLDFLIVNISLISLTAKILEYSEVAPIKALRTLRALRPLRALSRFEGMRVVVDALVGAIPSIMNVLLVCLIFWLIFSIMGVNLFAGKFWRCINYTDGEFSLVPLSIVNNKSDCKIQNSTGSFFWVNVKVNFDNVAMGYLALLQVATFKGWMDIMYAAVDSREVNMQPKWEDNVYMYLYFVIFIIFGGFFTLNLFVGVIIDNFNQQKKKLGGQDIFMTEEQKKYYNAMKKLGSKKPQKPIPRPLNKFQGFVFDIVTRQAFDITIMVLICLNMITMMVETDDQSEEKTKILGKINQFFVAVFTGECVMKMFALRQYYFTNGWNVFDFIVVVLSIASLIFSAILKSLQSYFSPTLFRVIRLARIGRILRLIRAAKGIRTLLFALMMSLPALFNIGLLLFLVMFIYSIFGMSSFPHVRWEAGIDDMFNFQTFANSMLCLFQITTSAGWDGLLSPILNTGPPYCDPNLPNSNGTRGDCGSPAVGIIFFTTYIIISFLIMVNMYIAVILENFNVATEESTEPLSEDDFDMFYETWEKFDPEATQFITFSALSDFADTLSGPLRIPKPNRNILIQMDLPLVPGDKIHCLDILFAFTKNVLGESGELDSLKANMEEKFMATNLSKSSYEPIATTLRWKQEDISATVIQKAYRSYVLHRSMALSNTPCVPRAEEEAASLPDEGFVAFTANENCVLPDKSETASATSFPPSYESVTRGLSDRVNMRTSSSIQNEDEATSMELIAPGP

The IC50 is the concentration that gives 50% inhibition. Consider `C[C@@H]1C(=O)NCCN1C(=O)NC(c1ccc(OC(F)(F)F)c(F)c1)c1ccc(F)c(C(F)(F)F)n1` (single isomer, unassigned) [Example 56A, (2R)-N-((R or S)-(3-fluoro-4-(trifluoro-methoxy)phenyl)(5-fluoro-6-(trifluoro-methyl)pyridin-2-yl)methyl)-2-methyl-3-oxopiperazine-1-carboxamide], for which the IC50 was 11.7 nM.
With `C[C@@H]1C(=O)NCCN1C(=O)NC(c1ccc(F)c(Cl)c1)c1cccc(C(F)(F)F)n1` (single isomer, unassigned) [Example 44] the figure was 8.55 nM.
For the compound `C[C@@H]1C(=O)NCCN1C(=O)NC(c1ccc(C(F)F)nc1)c1ccc(F)c(Cl)c1F` (single isomer, unassigned) [Example 32A, (2R)-N-((R or S)-(3-chloro-2,4-difluoro-phenyl)(6-(difluoro-methyl)pyridin-3-yl)methyl)-2-methyl-3-oxopiperazine-1-carboxamide], the IC50 stood at 96.8 nM.
Take `C[C@@H]1C(=O)NCCN1C(=O)NC(c1ccc(C(C)(F)F)nc1)c1ccc(F)c(Cl)c1F` (single isomer, unassigned) [Example 75B]: the IC50 is 2.95 nM.
As for `C[C@@H]1C(=O)NCCN1C(=O)NC(c1cnc(C(F)(F)F)c(Cl)c1)c1ccc(Cl)c(C(F)(F)F)n1` (single isomer, unassigned) [Example 83B], the IC50 was 3.14 nM.
As to `C[C@@H]1C(=O)NCCN1C(=O)NC(c1ccc(F)c(Cl)c1)c1cccc(OC(F)F)n1` (single isomer, unassigned) [Example 72A], the IC50 worked out at 195 nM.
Under `C[C@@H]1C(=O)NCCN1C(=O)NC(c1ccc(OC(F)(F)F)cc1)c1cc(C(F)(F)F)n[nH]1` (single isomer, unassigned) [Example 87B, (2R)-2-methyl-3-oxo-N-((S or R)-(4-(trifluoromethoxy)phenyl)(3-(trifluoromethyl)-1H-pyrazol-5-yl)methyl)piperazine-1-carboxamide] stands 10.8 nM.
Regarding `CCC1C(=O)NCCN1C(=O)NC(c1ccc(C(F)(F)F)nc1)c1ccc(F)c(Cl)c1F` (single isomer, unassigned) [Example 40B, N-((R or S)-(3-chloro-2,4-difluorophenyl)(6-(trifluoromethyl)pyridin-3-yl)methyl)-(S or R)-2-ethyl-3-oxopiperazine-1-carboxamide], the IC50 amounted to 10.5 nM.
For `C[C@@H]1C(=O)NCCN1C(=O)NC(c1ccc(F)c(Cl)c1)c1ccc2nc(C(F)(F)F)cn2c1` (single isomer, unassigned) [Example 11B], the IC50 came to 196 nM.
Take `C[C@@H]1C(=O)NCCN1C(=O)NC(c1cnn(-c2ccc(F)cc2)c1)c1ccc(F)c(Cl)c1F` (single isomer, unassigned) [Example 65A, (2R)-N-((R or S)-(3-chloro-2,4-difluoro-phenyl)(1-(4-fluoro-phenyl)-1H-pyrazol-4-yl)methyl)-2-methyl-3-oxopiperazine-1-carboxamide]: the IC50 was 8.05 nM.
As to `C[C@@H]1C(=O)NCCN1C(=O)NC(c1cccc(OC(F)(F)F)c1)c1ccc(F)c(C(F)(F)F)n1` (single isomer, unassigned) [Example 58A, (2R)-N-((R or S)-(5-fluoro-6-(trifluoro-methyl)pyridin-2-yl)(3-(trifluoromethoxy)phenyl)methyl)-2-methyl-3-oxopiperazine-1-carboxamide], the IC50 was determined as 3.6 nM.
On to `C[C@@H]1C(=O)NCCN1C(=O)NC(c1ccc(C(F)(F)F)nc1)c1ccc(F)c(Cl)c1` (single isomer, unassigned) [Example 16B, (2R)-N-((S or R)-(3-chloro-4-fluorophenyl)(6-(trifluoromethyl)pyridin-3-yl)methyl)-2-methyl-3-oxopiperazine-1-carboxamide], for which the IC50 was 31.7 nM.
As to `C[C@@H]1C(=O)NCCN1C(=O)NC(c1cnc(C(F)(F)F)nc1)c1ccc(Cl)c(Cl)c1` (single isomer, unassigned) [Example 28A, (2R)—N—((R or S)-(3,4-dichlorophenyl)(2-(trifluoromethyl)pyrimidin-5-yl)methyl)-2-methyl-3-oxopiperazine-1-carboxamide], the IC50 was 10.8 nM.
For the compound `C[C@@H]1C(=O)NCCN1C(=O)NC(c1ccc(Cl)c(C(F)(F)F)n1)c1ccc(F)c(Cl)c1F` (single isomer, unassigned) [Example 77B, (2R)-N-((S or R)-(3-chloro-2,4-difluorophenyl)(5-chloro-6-(trifluoromethyl)pyridin-2-yl)methyl)-2-methyl-3-oxopiperazine-1-carboxamide], the half-inhibitory concentration (IC50) is 1.06 nM.
For `C[C@@H]1C(=O)NCCN1C(=O)NC(c1cnc(C(F)(F)F)s1)c1ccc(F)c(Cl)c1F` (single isomer, unassigned) [Example 62B], the IC50 came to 2.45 nM.
With `C[C@@H]1C(=O)NCCN1C(=O)NC(c1ccc(OC(F)F)nc1)c1ccc(F)c(Cl)c1F` (single isomer, unassigned) [Example 31A, (2R)-N-((R or S)-(3-chloro-2,4-difluoro-phenyl)(6-(difluoro-methoxy)pyridin-3-yl)methyl)-2-methyl-3-oxopiperazine-1-carboxamide] the figure was 3.47 nM; with `C[C@@H]1C(=O)NCCN1C(=O)NC(c1cnn(-c2ccc(F)cc2)c1)c1ccc(F)c(Cl)c1F` (single isomer, unassigned) [Example 65B, (2R)-N-((S or R)-(3-chloro-2,4-difluoro-phenyl)(1-(4-fluoro-phenyl)-1H-pyrazol-4-yl)methyl)-2-methyl-3-oxopiperazine-1-carboxamide], 89.3 nM; with `O=C1CN(C(=O)NC(c2ccc(F)c(Cl)c2)c2ccc(Cl)c(C(F)(F)F)n2)CCN1` (single isomer, unassigned) [Example 80, N-((R or S)-(3-chloro-4-fluorophenyl)(5-chloro-6-(trifluoromethyl)pyridin-2-yl)methyl)-3-oxopiperazine-1-carboxamide], 1.9 nM.
On to `C[C@@H]1C(=O)NCCN1C(=O)NC(c1ccc(OC(F)(F)F)c(Cl)c1)c1cnn(C(F)(F)F)c1` (single isomer, unassigned) [Example 63A, (2R)-N-((R or S)-(3-chloro-4-(trifluoro-methoxy)phenyl)(1-(trifluoromethyl)-1H-pyrazol-4-yl)methyl)-2-methyl-3-oxopiperazine-1-carboxamide], for which the half-inhibitory concentration (IC50) was found to be 1.12 nM.
Under `C[C@@H]1C(=O)NCCN1C(=O)NC(c1ccc(F)c(C(F)(F)F)n1)c1ccc(F)c(Cl)c1F` (single isomer, unassigned) [Example 60A, (2R)-N-((R or S)-(3-chloro-2,4-difluoro-phenyl)(5-fluoro-6-(trifluoromethyl)pyridin-2-yl)methyl)-2-methyl-3-oxopiperazine-1-carboxamide] stands 2.19 nM.
As for `C[C@@H]1C(=O)NCCN1C(=O)NC(c1ccc(OC2CC2)c(F)c1)c1cnc(C(F)(F)F)c(Cl)c1` (single isomer, unassigned) [Example 25B, (2R)-N-((S or R)-(5-chloro-6-(trifluoro-methyl)pyridin-3-yl)(4-cyclopropoxy-3-fluorophenyl)methyl)-2-methyl-3-oxopiperazine-1-carboxamide], the IC50 amounted to 15.8 nM.
With `CC1(C)C(=O)NCCN1C(=O)NC(c1ccc(F)c(Cl)c1)c1cccc(C(F)(F)F)n1` (single isomer, unassigned) [Example 43, N-((R or S)-(3-chloro-4-fluorophenyl)(6-(trifluoromethyl)pyridin-2-yl)methyl)-2,2-dimethyl-3-oxopiperazine-1-carboxamide], the 50% inhibitory concentration (IC50) was 230 nM.
With `C[C@@H]1C(=O)NCCN1C(=O)NC(c1ccc(Cl)c(C(F)(F)F)n1)c1ccc(F)c(Cl)c1F` (single isomer, unassigned) [Example 77A, (2R)-N-((R or S)-(3-chloro-2,4-difluorophenyl)(5-chloro-6-(trifluoromethyl)pyridin-2-yl)methyl)-2-methyl-3-oxopiperazine-1-carboxamide] the figure was 4.59 nM; with `C[C@@H]1C(=O)NCCN1C(=O)NC(c1ccc(OCC(F)(F)F)cc1)c1ccc(F)c(C(F)(F)F)n1` (single isomer, unassigned) [Example 57A, (2R)-N-((R or S)-(5-fluoro-6-(trifluoro-methyl)pyridin-2-yl)(4-(2,2,2-trifluoro-ethoxy)phenyl)methyl)-2-methyl-3-oxopiperazine-1-carboxamide], 6.79 nM; with `C[C@@H]1C(=O)NCCN1C(=O)NC(c1cnc(OC(F)F)s1)c1ccc(F)c(Cl)c1F` (single isomer, unassigned) [Example 14B, (2R)-N-((S or R)-(3-chloro-2,4-difluorophenyl)(2-(difluoromethoxy)thiazol-5-yl)methyl)-2-methyl-3-oxopiperazine-1-carboxamide], 101 nM.
As to `C[C@@H]1C(=O)NCCN1C(=O)NC(c1ccc(F)c(Cl)c1)c1cc(C(F)(F)F)n[nH]1` (single isomer, unassigned) [Example 85B], the 50% inhibitory concentration (IC50) was found to be 5.47 nM.
Consider `C[C@@H]1C(=O)NCCN1C(=O)NC(c1cnc(OC(F)F)nc1)c1ccc(F)c(Cl)c1F` (single isomer, unassigned) [Example 74A, (2R)-N-((R or S)-(3-chloro-2,4-difluoro-phenyl)(2-(difluoro-methoxy)pyrimidin-5-yl)methyl)-2-methyl-3-oxopiperazine-1-carboxamide], for which the 50% inhibitory concentration (IC50) came to 71.1 nM.
With `C[C@@H]1C(=O)NCCN1C(=O)NC(c1cnc(OC(F)F)s1)c1ccc(F)c(Cl)c1F` (single isomer, unassigned) [Example 14A, (2R)-N-((R or S)-(3-chloro-2,4-difluorophenyl)(2-(difluoromethoxy)thiazol-5-yl)methyl)-2-methyl-3-oxopiperazine-1-carboxamide] the figure was 5.57 nM.
Regarding `C[C@@H]1C(=O)NCCN1C(=O)NC(c1ccc(OCC(F)(F)F)nc1)c1ccc(F)c(Cl)c1F` (single isomer, unassigned) [Example 1B], the half-inhibitory concentration (IC50) worked out at 30.9 nM.
